In US8242082B2, “Antibacterial peptide” (Seikagaku Corporation, priority 2004, dated 2012):
“Also recorded” adds a separate entry of the source. No end group written: not given here.

Experiments:
[1] = test system: E. coli, S. aur, MSSA, and MRSA; assay: Determination of antibacterial (bacteriocidal) effect, Alamar Blue; format: cell-based, Escherichia coli; Staphylococcus aureus; conditions: for antibacterial effect: gram-negative and gram-positive bacteria, 37° C. for six hours, absorbance difference with Alamar Blue; for antibacterial effect, comparison among test substances: relative ranking from the figures
Procedure: Each of E. coli, S. aur, MSSA, and MRSA was subjected to shaking culture overnight at 37° C. by use of a Muller-Hinton medium (product of DIFCO), and the cells precipitated through centrifugation were separated and washed with a Phenol Red-free RPMI 1640 medium. Strains of E. coli, S. aur, MSSA, and MRSA were prepared so that the cell concentrations were adjusted to 1×10^8 CFU/mL, 2×10^8 CFU/mL, 2×10^8 CFU/mL, and 2×10^8 CFU/mL, respectively, the concentrations being determined from the corresponding absorbance values at 650 nm by means of a spectrophotometer.
By use of a 96-well plate, each cell suspension (1×10^6 CFU/mL) (100 μL), a test substance (10 μL), an RPMI 1640 medium (70 μL), and an Alamar Blue reagent (product of BIOSOURCE) (20 μL) were admixed. In the presence of Alamar Blue, pink fluorescence attributed to live cells is observed, whereas the admixture remains blue when the cells are dead.
Each admixture was incubated at a constant temperature of 37° C. for six hours, and the difference between absorbance at 560 nm and that at 595 nm was obtained.
The procedure of the aforementioned <2-1> was repeated, except that 1-18, 1-18m, and 1-18 m2 were tested and the difference between absorbance at 550 nm and that at 590 nm was measured, to thereby determine the antibacterial effect of the test substances with respect to each of E. coli, S. aur, MSSA, and MRSA. […] In FIG. 6, the test results of 1-18 are represented by “CAP11,” and the black dots, white dots, black squares, and white squares denote the antibacterial effects to E. coli, S. aur, MSSA, and MRSA, respectively (X-axis: test substance concentration, Y-axis: difference between absorbance at 550 nm and that at 590 nm).

[2] = test system: binding between LPS and RAW 246.7 cells; assay: Determination of LPS-cell-binding inhibitory effect (Alexa 488-labeled LPS, FACS); format: cell-based; conditions: for LPS-cell-binding inhibitory effect: RAW 246.7 cells, Alexa 488-labeled LPS 100 ng/mL; for LPS-cell-binding inhibitory effect, comparison among test substances: relative ranking from the figures
Procedure: RAW 246.7 cells (macrophage cell strain) were cultured by use of an RPMI 1640 medium containing 10% FCS and collected. The collected cells were diluted with the same medium so that the cell concentration was adjusted to 5×10^5/mL. To the diluted liquid (500 μL), a test substance (5 μL) was added, and the mixture was subjected to shaking culture at 37° C. for 10 minutes. Subsequently, LPS that had been labeled with Alexa 488 (final concentration: 100 ng/mL) was added to the culture, and the mixture was subjected to shaking culture at 37° C. for 15 minutes. The collected cells were washed with PBS (3 mL×2) and suspended again in PBS (300 μL). Binding of Alexa 488-labeled LPS was measured through FACS. Control samples (a sample containing no labeled LPS (background) and an antibacterial-peptide-free sample (maximum LPS binding degree) were treated similarly, and the degree of the inhibitory effect on binding between LPS and RAW 246.7 cells was determined on the basis of comparison with control samples.
In a manner similar to that of the aforementioned <2-2>, the LPS-cell-binding inhibitory effect of the same test substances was determined. […] In FIG. 7, the test results of 1-18, 1-18m, and 1-18 m2 are represented by white dots, black dots, and black squares, respectively (X-axis: test substance concentration, Y-axis: percent binding of LPS to cells).

[3] = test system: Candida albicans (CA53133 strain); assay: Determination of antibacterial (bacteriocidal) effect (antifungal effect) to fungi, Alamar Blue; format: cell-based; conditions: for antibacterial (bacteriocidal) effect to fungi: Candida albicans, 35° C. for fourteen hours
Procedure: Candida albicans (CA53133 strain) was grown in Sabouraud dextrose agar. Colonies formed in the agar were collected and suspended to serum-free and Phenol Red-free RPM11640 liquid medium (SIGMA). The concentration of cells in the medium was determined from the corresponding absorbance value at 550 nm by means of spectrophotometer, and the concentration is adjusted to 0.5−2.5×10^4 CFU/mL. By use of a 96-well plate, each cell suspension (0.5-2.5×10^4 CFU/mL) (20 μL), a test substance (CAP11, 1-18 or 1-18 m2) (10 μL), an RPMI 1640 liquid medium (150 μL), and an Alamar Blue reagent (product of BIOSOURCE) (20 μL) were admixed. Each admixture was incubated at a constant temperature of 35° C. for fourteen hours, and the difference between absorbance at 550 nm and that at 595 nm was obtained.

Substance | antibacterial effect [1] | LPS-cell-binding inhibitory effect [2] | LPS-cell-binding inhibitory effect, comparison among test substances [2] | antibacterial (bacteriocidal) effect to fungi [3] | antibacterial effect, comparison among test substances [1] | antifungal effect, comparison among test substances ([3]; relative ranking from FIG. 8)
monomer: CAP11 monomer having 43 amino acid units and no cysteine disulfide bond (GLRKKFRKTRKRIGKLGRKIGKTGRKVWKAWREYGQIPYPCRI; A partial peptide of CAP11) [reference compound] | exhibited an antibacterial effect | an LPS-cell-binding inhibitory effect | No significant difference | exhibit an antibacterial (bacteriocidal) effect to fungi |  | 
9-26: partial peptide, 9th to 26th amino acid residues of the CAP11 monomer | exhibited an antibacterial effect | an LPS-cell-binding inhibitory effect |  |  |  | 
16-33: partial peptide, 16th to 33th amino acid residues of the CAP11 monomer (LGRKIGKTGRKVWKAWRE; A partial peptide of CAP11) | exhibited an antibacterial effect | an LPS-cell-binding inhibitory effect |  |  |  | 
GLRKLFRKLLKLIQKLLR [1-18m] | exhibit an antibacterial (bacteriocidal) effect | exhibit an LPS-cell-binding inhibitory effect |  |  |  | 
KLRKLFRKLLKLIRKLLR [1-18 m2, synthesized and substituted form of CAP11 (1-18)] | exhibit an antibacterial (bacteriocidal) effect | exhibit an LPS-cell-binding inhibitory effect | strongest effect | exhibit an antibacterial (bacteriocidal) effect to fungi | strongest antibacterial effect | strongest antifungal effect
GLRKKFRKTRKRIQKLGR [1-18] | exhibited an antibacterial effect; also recorded: exhibit an antibacterial (bacteriocidal) effect | exhibit an LPS-cell-binding inhibitory effect | most potent; also recorded: then 1-18 | exhibit an antibacterial (bacteriocidal) effect to fungi | most potent antibacterial effect; also recorded: then 1-18 | 
